The values that follow are results of earlier work, collected in article PMC7394005, “Assessing the Selectivity of FXR, LXRs, CAR, and RORγ Pharmaceutical Ligands With Reporter Cell Lines” (Frontiers in Pharmacology, 2020).

For orientation: IC50 means the point on the concentration scale where inhibition reaches its midpoint.

In one series the test system is CAR/SRC-1. Also on record: method as in Maglich et al., 2003. The following applies: ref Maglich et al., 2003; read-out: EC50 in the CAR/SRC-1 FRET assay; cited from earlier work.
A further series concerns FXR. The arrangement: method as in Yu et al., 2014. Conditions: ref Yu et al., 2014; read-out: IC50 in FXR cell-based antagonistic assays; cited from earlier work.
Another series has as its system LXRβ. The following applies: luciferase reporter gene with LXR response elements in HEK293 cells; ref Peng et al., 2011; cited from earlier work.
For series [1], the system named is type 1 diabetes model mice. Also on record: method as in Solt et al., 2015. The following applies: ref Solt et al., 2015; cited from earlier work.
The next series concerns RORγt. The arrangement: method as in Rene et al., 2014; Chang et al., 2016. Conditions: full-length RORγt transfected cells; ref Rene et al., 2014; Chang et al., 2016; read-out: EC50, induction of reporter gene expression; cited from earlier work. For orientation: In a reporter assay the amount or activity of a reporter protein is the signal.
In another series the test system is hPXR LBD. Also on record: method as in Shukla et al., 2011. Conditions: ref Shukla et al., 2011; cited from earlier work.
The subject of another series is hPXR. The arrangement: method as in Lin et al., 2017. Conditions: ref Lin et al., 2017; read-out: IC50 in the cell-based hPXR antagonistic assay; cited from earlier work.

As to `Clc1ccc(-c2nc3sccn3c2/C=N/OCc2ccc(Cl)c(Cl)c2)cc1` [CITCO], the EC50 in the series with CAR/SRC-1 was 0.049 µM.

For the molecule `COc1cccc(Cn2cc(C(=O)Nc3ccc(C)c(S(=O)(=O)N4CCOCC4)c3)c(-c3ccc(C)cc3)n2)c1` [DY268], in the series on FXR, the IC50 is 0.469 µM.

Regarding `O=C(O)Cc1cccc(OCCCN(Cc2cccc(C(F)(F)F)c2Cl)CC(c2ccccc2)c2ccccc2)c1` [GW3965], the LXRβ agonistic potency entry with LXRβ is given as “nanomolar”.

For the molecule `CC(=O)Nc1nc(C)c(S(=O)(=O)Nc2ccc(C(O)(C(F)(F)F)C(F)(F)F)cc2)s1` [SR1001], in series [1], the “Diabetes incidence and insulitis” value was “significantly reduced diabetes incidence and insulitis”.

Take `O=C(Nc1ccc(C(O)(C(F)(F)F)C(F)(F)F)cc1)c1ccc(C(F)(F)F)cc1` [SR1078]: the EC50 in the series with RORγt is 0.8 µM.

With `CCOP(=O)(OCC)C(=Cc1cc(C(C)(C)C)c(O)c(C(C)(C)C)c1)P(=O)(OCC)OCC` [SR12813], the EC50 in the series with hPXR LBD was 0.44 µM.

Consider SPA70, for which the IC50 in the series with hPXR was 0.51 µM.
